pIC50: −log10 of the molar value.
Target: Tie-2 (Homo sapiens, UniProt Q02763)
Test: Tie-2 tyrosine kinase activity: kinase-dependent ATP consumption (pEY substrate, luciferase/luciferin chemiluminescence) or 33P-ATP incorporation into substrate
Assay type: biochemical
Conditions: Tie-2 (human enzyme) inhibition, Table 2, class symbols A-D
Method in brief: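 Values are IC50 categories: A below 50 nM, B above 50 to 1000 nM, C above 1000 to below 10,000 nM, D 10,000 nM or more. They were measured by 33P-ATP phosphate transfer onto a generic substrate bound to the plate (scintillation), or by luminescent luciferase detection of ATP used with pEY.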

Sequence of Tie-2 (Q02763 23-1124): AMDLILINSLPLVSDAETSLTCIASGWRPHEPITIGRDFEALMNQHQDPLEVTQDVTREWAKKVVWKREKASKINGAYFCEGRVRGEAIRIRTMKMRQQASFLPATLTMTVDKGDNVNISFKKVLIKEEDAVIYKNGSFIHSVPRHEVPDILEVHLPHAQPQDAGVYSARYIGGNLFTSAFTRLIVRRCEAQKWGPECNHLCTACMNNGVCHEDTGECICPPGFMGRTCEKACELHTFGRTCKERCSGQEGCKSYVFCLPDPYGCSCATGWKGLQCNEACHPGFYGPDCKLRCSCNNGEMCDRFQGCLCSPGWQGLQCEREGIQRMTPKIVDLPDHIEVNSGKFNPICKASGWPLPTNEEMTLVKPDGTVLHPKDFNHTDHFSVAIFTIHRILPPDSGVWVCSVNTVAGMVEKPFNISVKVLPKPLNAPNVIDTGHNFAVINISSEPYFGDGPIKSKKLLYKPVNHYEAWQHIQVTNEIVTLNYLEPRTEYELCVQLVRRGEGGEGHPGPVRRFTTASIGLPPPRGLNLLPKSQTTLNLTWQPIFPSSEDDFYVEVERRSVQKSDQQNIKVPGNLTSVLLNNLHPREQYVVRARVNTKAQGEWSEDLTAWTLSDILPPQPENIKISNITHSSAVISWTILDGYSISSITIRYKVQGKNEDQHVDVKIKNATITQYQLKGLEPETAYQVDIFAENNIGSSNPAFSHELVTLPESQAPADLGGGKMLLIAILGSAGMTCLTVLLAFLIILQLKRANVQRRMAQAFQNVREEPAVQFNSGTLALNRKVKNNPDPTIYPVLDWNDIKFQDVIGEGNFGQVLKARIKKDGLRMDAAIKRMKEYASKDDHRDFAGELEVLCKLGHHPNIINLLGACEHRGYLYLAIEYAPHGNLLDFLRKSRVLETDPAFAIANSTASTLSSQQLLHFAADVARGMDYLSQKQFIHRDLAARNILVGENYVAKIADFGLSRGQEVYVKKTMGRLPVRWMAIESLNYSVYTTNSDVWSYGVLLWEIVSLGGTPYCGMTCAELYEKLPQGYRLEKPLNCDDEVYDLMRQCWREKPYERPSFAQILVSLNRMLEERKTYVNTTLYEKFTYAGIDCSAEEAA

Structure (SMILES) | pIC50
Cc1nc(-c2ccncc2)nn1CCN(CCN1CCCCC1)C(=O)Cc1cccc2ccccc12 [Entry 178, N-[2-(5-methyl-3-pyridin-4-yl-1H-1,2,4-triazol-1-yl)ethyl]-2-naphthalen-1-yl-N-(2-piperidin-1-ylethyl)acetamide] | ≤ 5.00
Cc1nc(-c2ccncc2)nn1CCN(C(=O)Cc1cccc2ccccc12)C1CCCCC1 [Entry 179, N-cyclohexyl-N-[2-(5-methyl-3-pyridin-4-yl-1H-1,2,4-triazol-1-yl)ethyl]-2-naphthalen-1-ylacetamide] | > 7.30
Cc1nc(-c2ccncc2)nn1CCN(CC1CCCO1)C(=O)Cc1cccc2ccccc12 (stereo not shown) [Entry 180, N-[2-(5-methyl-3-pyridin-4-yl-1H-1,2,4-triazol-1-yl)ethyl]-2-naphthalen-1-yl-N-(tetrahydrofuran-2-ylmethyl)acetamide] | 6.00 to 7.30
Cc1nc(-c2ccnc(NC3CCCNC3)c2)nn1CCN(C(=O)Cc1cccc2ccccc12)C1CCCC1 (stereo not shown) [Entry 181, N-cyclopentyl-N-(2-{5-methyl-3-[2-(piperidin-3-ylamino)pyridin-4-yl]-1H-1,2,4-triazol-1-yl}ethyl)-2-naphthalen-1-ylacetamide] | 6.00 to 7.30
Cc1nc(-c2ccnc(N[C@@H]3CCNC3)c2)nn1CCN(C(=O)Cc1cccc2ccccc12)C1CCCC1 [Entry 182, N-cyclopentyl-N-[2-(5-methyl-3-{2-[(3R)-pyrrolidin-3-ylamino]pyridin-4-yl}-1H-1,2,4-triazol-1-yl)ethyl]-2-naphthalen-1-ylacetamide] | 6.00 to 7.30
Cc1nc(-c2ccnc(NCCN3CCCCC3)n2)nn1CCN(C(=O)Cc1cccc2ccccc12)C1CCCC1 [Entry 183, N-cyclopentyl-N-[2-(5-methyl-3-{2-[(2-piperidin-1-ylethyl)amino]pyrimidin-4-yl}-1H-1,2,4-triazol-1-yl)ethyl]-2-naphthalen-1-ylacetamide] | > 7.30
Cc1nc(-c2ccnc(NCc3ccccc3)n2)nn1CCN(C(=O)Cc1cccc2ccccc12)C1CCCC1 [Entry 184, N-cyclopentyl-N-[2-(5-methyl-3-{2-[(phenylmethyl)amino]pyrimidin-4-yl}-1H-1,2,4-triazol-1-yl)ethyl]-2-naphthalen-1-ylacetamide] | 6.00 to 7.30
Cc1nc(-c2cc(N)nc(Cl)c2)nn1CCN(C(=O)Cc1cccc2ccccc12)C1CCCC1 [Entry 185, N-{2-[3-(2-amino-6-chloropyridin-4-yl)-5-methyl-1H-1,2,4-triazol-1-yl]ethyl}-N-cyclopentyl-2-naphthalen-1-ylacetamide] | 6.00 to 7.30
Cc1nc(-c2cc(N)nc(N)c2)nn1CCN(C(=O)Cc1cccc2ccccc12)C1CCCC1 [Entry 186, N-cyclopentyl-N-{2-[3-(2,6-diaminopyridin-4-yl)-5-methyl-1H-1,2,4-triazol-1-yl]ethyl}-2-naphthalen-1-ylacetamide] | 6.00 to 7.30
CCOc1cc(-c2nc(C)n(CCN(C(=O)Cc3cccc4ccccc34)C3CCCC3)n2)cc(N)n1 [Entry 187, N-(2-{3-[2-amino-6-(ethyloxy)pyridin-4-yl]-5-methyl-1H-1,2,4-triazol-1-yl}ethyl)-N-cyclopentyl-2-naphthalen-1-ylacetamide] | 5.00 to 6.00

— US8178570B2, “Tie-2 modulators and methods of use” (Exelixis, Inc., priority 2003, dated 2012)
